Assay results: paper PMC10600247, “Impact of C- and N-terminal protection on the stability, metal chelation and antimicrobial properties of calcitermin” (Scientific Reports, 2023)
Residues, ends and D or L forms follow the SMILES beside them.

Columns and labels:
[1] = test system: C. albicans (ATCC 10231); assay: In vitro antifungal CFU assay; type: cell-based, Candida albicans; details: pH 5.4; for mean CFU number ± S.D.: per 0.1 mL
Summary of the method: (§1)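 Peptides (final 0.128, 0.064, 0.032 mg/mL), alone or with ZnCl2 or CuCl2 at M:L 0.9:1, were incubated with 10^3 CFU/well in PBS pH 5.4 plus 1.5% TSB at 37 °C with slow rocking for 3 and 24 h. Aliquots were plated on TSA and CFU counted after 24 h; triplicate.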

[2] = test system: E. coli (ATCC 25922); assay: In vitro anti-E. coli CFU assay; type: cell-based, Escherichia coli; details: pH 5.4; for mean CFU number ± S.D.: per 0.1 mL
Summary of the method: as §1

[3] = in vitro; details: human, pH 7.4
Protocol: Each peptide (C = 1·10^–4 M) and metal complex (metal:ligand ratio 1:1) was incubated in a sample containing 1 ml of human plasma (obtained as a pool of 40 individuals from the University Hospital of Ferrara) and 1 ml of ammonium acetate buffer (pH 7.4) at 37 °C. L-phenylalaninol is added as internal standard. At regular time intervals, 200 μl aliquots were taken and enzymatic reaction was blocked by adding 300 μl of HClO4 0.5 M. The sample was then centrifugated for 6 min at 14,000 × g. The supernatant was then filtered and analysed by HPLC. The analytical column was an Agilent Poroshell 120 SB-C18 (4.6 × 100 mm, 2.7 μm, pore size 120 Å). Flow rate = 0.5 ml/min, mobile phase H2O + 0.1% v/v TFA, linear gradient from 0 to 60% of acetonitrile + 0.1% v/v TFA over 30 min for the elution of peptides, temperature 25 °C, detection wavelength 210 nm. […] Informed consent was obtained from all subjects and/or their legal guardian(s) prior to the donation of blood samples. All experimental protocols were approved by the National Research and Research Transversal Processes boards at University of Ferrara. All methods were carried out in accordance with relevant guidelines and regulations.

[4] = peptide 0.032 mg/mL + CuCl2 (0.9:1), 3 h
[5] = peptide 0.032 mg/mL + CuCl2 (0.9:1), 24 h
[6] = peptide 0.032 mg/mL + ZnCl2 (0.9:1), 3 h
[7] = peptide 0.032 mg/mL + ZnCl2 (0.9:1), 24 h
[8] = peptide 0.064 mg/mL + CuCl2 (0.9:1), 3 h
[9] = peptide 0.064 mg/mL + CuCl2 (0.9:1), 24 h
[10] = peptide 0.064 mg/mL + ZnCl2 (0.9:1), 3 h
[11] = peptide 0.064 mg/mL + ZnCl2 (0.9:1), 24 h
[12] = peptide 0.128 mg/mL + CuCl2 (0.9:1), 3 h
[13] = peptide 0.128 mg/mL + CuCl2 (0.9:1), 24 h
[14] = peptide 0.128 mg/mL + ZnCl2 (0.9:1), 3 h
[15] = peptide 0.128 mg/mL + ZnCl2 (0.9:1), 24 h
[16] = peptide alone 0.032 mg/mL, 24 h
[17] = peptide alone 0.064 mg/mL, 24 h
[18] = peptide alone 0.128 mg/mL, 24 h

## CC[C@H](C)[C@H](NC(=O)[C@H](C)NC(=O)[C@@H](N)C(C)C)C(=O)N[C@@H](C)C(=O)N[C@@H](CC(C)C)C(=O)N[C@@H](CCCCN)C(=O)N[C@@H](C)C(=O)N[C@@H](C)C(=O)N[C@@H](Cc1c[nH]cn1)C(=O)N[C@@H](Cc1ccc(O)cc1)C(=O)N[C@@H](Cc1c[nH]cn1)C(=O)N[C@H](C(=O)N[C@@H](Cc1c[nH]cn1)C(=O)N[C@@H](CCCCN)C(=O)N[C@@H](CCC(=O)O)C(N)=O)[C@@H](C)O [L3, VAIALKAAHYHTHKE-NH2] (H-VAIALKAAHYHTHKE-NH2)
[1]; [4]
  CFU decrease/increase with respect to untreated controls: +23%
  mean CFU number ± S.D.: 187 ± 20 CFU
[1]; [5]
  CFU decrease/increase with respect to untreated controls: -19%
  mean CFU number ± S.D.: 2,042 ± 137 CFU
[1]; [6]
  CFU decrease/increase with respect to untreated controls: +6%
  mean CFU number ± S.D.: 160 ± 25 CFU
[1]; [7]
  CFU decrease/increase with respect to untreated controls: +2%
  mean CFU number ± S.D.: 2,557 ± 251 CFU
[1]; [8]
  CFU decrease/increase with respect to untreated controls: +59%
  mean CFU number ± S.D.: 241 ± 23 CFU
[1]; [9]
  CFU decrease/increase with respect to untreated controls: -8%
  mean CFU number ± S.D.: 2,315 ± 546 CFU
[1]; [10]
  CFU decrease/increase with respect to untreated controls: -2%
  mean CFU number ± S.D.: 148 ± 22 CFU
[1]; [11]
  mean CFU number ± S.D.: 1,596 ± 145 CFU
[1]; [12]
  CFU decrease/increase with respect to untreated controls: +53%
  mean CFU number ± S.D.: 230 ± 3 CFU
[1]; [13]
  CFU decrease/increase with respect to untreated controls: -33%
  mean CFU number ± S.D.: 1,687 ± 111 CFU
[1]; [14]
  mean CFU number ± S.D.: 71 ± 17 CFU
[1]; [15]
  mean CFU number ± S.D.: 605 ± 97 CFU
[1]; peptide alone 0.032 mg/mL, 3 h
  CFU decrease/increase with respect to untreated controls: +25%
  mean CFU number ± S.D.: 189 ± 23 CFU
[1]; [16]
  CFU decrease/increase with respect to untreated controls: -10%
  mean CFU number ± S.D.: 2,263 ± 251 CFU
[1]; peptide alone 0.064 mg/mL, 3 h
  CFU decrease/increase with respect to untreated controls: +20%
  mean CFU number ± S.D.: 182 ± 27 CFU
[1]; [17]
  CFU decrease/increase with respect to untreated controls: -12%
  mean CFU number ± S.D.: 2,204 ± 170 CFU
[1]; peptide alone 0.128 mg/mL, 3 h
  CFU decrease/increase with respect to untreated controls: -5%
  mean CFU number ± S.D.: 144 ± 11 CFU
[1]; [18]
  CFU decrease/increase with respect to untreated controls: -14%
  mean CFU number ± S.D.: 2,164 ± 101 CFU
[2]; [4]
  mean CFU number ± S.D.: 509 ± 100 CFU
[2]; [5]
  CFU decrease/increase with respect to untreated controls: +7%
  mean CFU number ± S.D.: 184 ± 17 CFU
[2]; [6]
  mean CFU number ± S.D.: 439 ± 91 CFU
[2]; [7]
  CFU decrease/increase with respect to untreated controls: +17%
  mean CFU number ± S.D.: 202 ± 23 CFU
[2]; [8]
  mean CFU number ± S.D.: 198 ± 117 CFU
[2]; [9]
  CFU decrease/increase with respect to untreated controls: -20%
  mean CFU number ± S.D.: 138 ± 48 CFU
[2]; [10]
  mean CFU number ± S.D.: 224 ± 4 CFU
[2]; [11]
  CFU decrease/increase with respect to untreated controls: +8%
  mean CFU number ± S.D.: 186 ± 21 CFU
[2]; [12]
  mean CFU number ± S.D.: 191 ± 7 CFU
[2]; [13]
  mean CFU number ± S.D.: 102 ± 20 CFU
[2]; [14]
  mean CFU number ± S.D.: 59 ± 9 CFU
[2]; [15]
  CFU decrease/increase with respect to untreated controls: +9%
  mean CFU number ± S.D.: 187 ± 17 CFU
[2]; peptide alone 0.032 mg/mL, 3 h
  CFU decrease/increase with respect to untreated controls: -23%
  mean CFU number ± S.D.: 810 ± 100 CFU
[2]; [16]
  CFU decrease/increase with respect to untreated controls: +17%
  mean CFU number ± S.D.: 202 ± 18 CFU
[2]; peptide alone 0.064 mg/mL, 3 h
  CFU decrease/increase with respect to untreated controls: -30%
  mean CFU number ± S.D.: 737 ± 147 CFU
[2]; [17]
  CFU decrease/increase with respect to untreated controls: -3%
  mean CFU number ± S.D.: 166 ± 8 CFU
[2]; peptide alone 0.128 mg/mL, 3 h
  CFU decrease/increase with respect to untreated controls: -15%
  mean CFU number ± S.D.: 893 ± 113 CFU
[2]; [18]
  CFU decrease/increase with respect to untreated controls: +12%
  mean CFU number ± S.D.: 193 ± 9 CFU
[3]
  half-life: ~20 min
